Data taken from publication PMC8962522, “Direct interaction of TrkA/CD44v3 is essential for NGF-promoted aggressiveness of breast cancer cells” (Journal of Experimental & Clinical Cancer Research : CR, 2022).

System: MDA-MB-468 cells
Experiment: Transwell invasion assay through collagen I, MDA-MB-468
Assay type: cell-based
Conditions: collagen 1 Transwell, 16 h after treatment; "these effects" = decrease in basal and NGF-induced invasion
Description: Transwell invasion assays were performed to assess cancer cell invasion in a Transwell chamber containing a collagen I-coated membrane (12-wells with inserts and […] pore size membranes; Corning, Life Sciences). A total of 1 × 10^6 starved cells (0.1% in SVF medium) were plated in the top chamber and incubated for 10 min before treatment with a peptide (50 ng/mL for 30 min); NGF was added to the lower chamber. […] and stained with Hoechst 33258 (1 mg/mL) for 30 min, and the cells that invaded the lower surface through the pores of the inserts were automatically counted under an inverted microscope with ImageJ software (with an in-house-developed plug-in).
Supplementary file 13046_2022_2314_MOESM3_ESM.pdf: Additional file 3: Supplementary Figure 1. Validation of the ectopic expression of CD44 and/or TrkA in COS-7 cells. The expression of all CD44 isoforms (A), CD44 variant 3 (B), CD44 variant 6 (C) and TrkA ([…]; D) was evaluated by RT–qPCR (normalized using PUM-1). No expression of CD44, CD44 variants [3 or 6] or TrkA was detected in COS-7 cells (A-D) compared with that in cells transfected with the expression plasmid carrying each protein. […] Quantification of the PLA results was performed using ImageJ software (30 randomly chosen fields per condition of three different experiments). […] CD44v3 and CD44v6 levels at the plasma membrane were assessed by flow cytometry (A-D). […]

## IDDDEDFISST [Peptide 4, mimetic peptide 4 (…) corresponding to the C-terminal region of CD44v3]
  effect on invasion of MDA-MB-468 cells: These effects on invasion were also observed in the MDA-MB-468 triple-negative breast cancer cell line
